# Laboratory results from patent US20110105393A1, “METHODS FOR PROMOTING STEM CELL PROLIFERATION AND SURVIVAL” (priority 2007, published 2011).
# Legend:
# Tie-2 receptor = test: Tie-2 phosphorylation in fetal neural cells (Western blot); assay type: cell-based, mouse; conditions: exogenous addition, Western blot (FIG. 10a)
# Description: (§1) Cell Culture: E13.5 cortical embryonic mouse CNS stem cells were grown as previously described (Johe et al., Genes Dev 10, 3129, 1996). Cells were expanded in serum-free DMEM/F12 medium with N2 supplement and FGF2 (20 ng/ml) for 5 days under 5% oxygen conditions and were re-plated fresh or from frozen stocks at 1,000-10,000 cells per cm^2. FGF2 was included throughout our experiments, unless otherwise stated. Adult rat (3-6 months old) or adult mouse (2-4 months old) SVZ Neural Stem Cell (NSC) cultures were grown in the same medium as the fetal cultures.
# (§2) Pharmacological treatments: Unless otherwise stated, we used the following concentrations: Dll4 and Ang2 (in vitro, 500 ng/ml; in vivo 12.5 μg as a single injection), FGF2 (in vitro, 20 ng/ml), JAK inhibitor (in vitro, 200 nM; in vivo, 250 ng as a single injection), insulin (in vitro, 25 μg/ml; in vivo, 40 μg as a single injection), DAPT (1 μM), Fluorogold (0.5 μg). […]
# Three characterized Tie-2 receptor antibodies were used to determine if the Tie-2 receptor was expressed in the immature neural precursor cells found in the SVZ of the adult brain. […] Precursor cells that proliferate in vitro can be readily derived from the fetal and adult brain. […] This colony number assay measured the survival of precursor cells that could differentiate into neurons and glia (See, Table 1).
# adult rat SVZ NSCs = test: Expansion of adult rat SVZ NSC / neural precursor cultures; assay type: cell-based
# Description: as §1, with “culture:” for “Culture:”, “(Johe,” for “(Johe”, “3129-40,” for “3129,”, “the studies,” for “our experiments,”, “NSC” for “Neural Stem Cell (NSC)”
# Pharmacological treatments: Unless otherwise stated, the following concentrations were used: Dll4 and Ang-2 (in vitro, 500 ng/ml; in vivo 12.5 μg as a single injection), FGF2 (in vitro, 20 ng/ml), JAK inhibitor (in vitro, 200 nM; in vivo, 250 ng as a single injection), insulin (in vitro, 25 μg/ml; in vivo, 40 μg as a single injection), DAPT (1 μM), Fluorogold (0.5 μg). For the survival assays, compounds were added daily and Notch ligands every 2 days for the duration of the experiment. For the effects of kinase inhibitors on Notch activation, cells were pre-incubated for 1 h prior to Notch activation.
# as §1, §2
substance,measurement,setting,value
Ang-2: human angiopoietin-2 (623-AN) from R&D; antagonist for angiopoietin-1 at Tie2,phosphorylation of Tie-2,Tie-2 receptor,promoted phosphorylation
same,generation of adult rat SVZ NSCs in vitro,"adult rat SVZ NSCs; 0.5 μg/ml, 5-d (FIG. 2b)",profoundly increased
same,colony formation and overall cell numbers,adult rat SVZ NSCs; adult rat SVZ NSC cultures treated with Dll4,significantly increased
same,increase in the numbers of proliferating cells,"adult rat SVZ NSCs; cells from adult SVZ in culture, added to Dll4, insulin and FGF2, p=2.15×10^−5 (FIG. 10b)",7 fold
